# What was measured:
# [1] = MTMD (Maximum Tolerated Multiple Dose) determination, iv weekly x 3; type: in vivo; conditions: mice; iv/Q7d × 3
# Text: Female CD-1 or Athymic Nude-Fox1 nu/nu mice (Envigo) were utilized for all experiments. […] Animals were acclimated for five days prior to being individually tattoo-identified. Animal protocols were reviewed and approved according to the regional Institutional Animal Care and Use Committees.
# Mice were randomly allocated into experimental groups and intravenously administered, once for the MTD (Maximum Tolerated Dose) determination or one administration a week during three consecutive weeks, for the MTMD (Maximum Tolerated Multiple Dose) determination study. The animals were administered with white formulation or with compound dissolved in the experimental formulation at different concentrations. The volume administered was always […]. Once administered, animals were monitored for clinical signs of systemic toxicity, changes in body weight and mortality up to 14 days after the administration.
# [2] = system: H460 tumors; assay: Human lung (NSCLC) xenograft, tumor volume
# Protocol: (§1) Female athymic nu/nu mice (Harlan Laboratories Models, S.L. Barcelona, Spain or Envigo, Spain) were utilized for all experiments. Animal were housed in individually ventilated cages Sealsafe® Plus, Techniplast S.P.A.), up to ten per cage on a 12-hour light-dark cycle at 21-23° C. and 40-60% humidity. […] Animals were acclimated for at least 5 days prior to tumor implantation with a tumor cell suspension.
# H460 cells were maintained in vitro at 37° C. with 5% CO2 in Dulbecco's Modified Eagle's Medium (Sigma-Aldrich, Co). Culture cells were passaged every 3 to 5 days upon reaching confluence. Each animal was subcutaneously implanted (on the right flank using 26G needle and a 1 cc syringe) at 4-6 weeks of age with 5×10^6 H460 cells suspended in 0.05 mL of a solution consisting of 50% Matrigel® (Corning Incorporated Life Sciences) and 50% medium without serum or antibiotics.
# (§2) Treatment tolerability was assessed by monitoring body weight evolution, clinical signs of systemic toxicity, as well as evidences of local damage in the injection site.
# (§3) In Xenograft Studies with Other Cell Lines: • Tumor volume was calculated using the equation (a·b^2)/2, where a: length (longest diameter) and b: width (shortest diameter) were measured in mm by using digital caliper (Fowler Sylvac, S235PAT).
# (§4) Treatments producing >20% lethality and/or 20% net body weight loss were considered toxic.
# Tables and figures summarize the data obtained from complete experimental groups, i.e. those groups keeping the initial number of animals, n=8-10.
# [3] = system: HT1080 tumors; assay: Human fibrosarcoma xenograft, total diameter (tumor + leg)
# [4] = system: HGC27 tumors; assay: Human gastric xenograft, tumor volume
# Protocol: as §1
# HGC27 cells were maintained in vitro at 37° C. with 5% CO2 in Iscove's Modified Dulbecco's Medium (Sigma Aldrich, Co). Culture cells were passage every 3 to 5 days on reaching confluence. Each animal was subcutaneously implanted (on the right flank using 26G needle and a 1 cc syringe) at 4-6 weeks of age with 5×10^6 HGC-27 cells suspended in 0.05 mL of a solution consisting of 50% Matrigel® (Corning Incorporated Life Sciences), 50% medium without serum or antibiotics.
# as §2, §3, §4
# [5] = system: A2780 tumors; assay: Human ovarian xenograft, tumor volume
# Protocol: as §1
# Culture cells were passaged every 3 to 5 days upon reaching confluence. Each animal was subcutaneously implanted (on the right flank using 26G needle and a 1 cc syringe) at 4-6 weeks of age with 10×10^6 A2780 cells suspended in 0.05 mL of a solution consisting of 50% Matrigel® (Corning Incorporated Life Sciences) and 50% medium without serum or antibiotics.
# as §2, §3, §4
# [6] = system: MDA-MB-231 tumors; assay: Human breast xenograft, tumor volume
# Protocol: as §1
# MDA-MB-231 cells were maintained in vitro at 37° C. with 5% CO2 in Dulbecco's Modified Eagle's Medium (Sigma-Aldrich, Co). Culture cells were passaged every 3 to 5 days upon reaching confluence.
# as §2, §3, §4
smiles,measurement,setting,value
COc1ccc2oc3c(c2c1)CCN[C@]31CS[C@@H]2c3c(OC(C)=O)c(C)c4c(c3[C@H](COC1=O)N1[C@@H]2[C@H]2c3c(cc(C)c(OC)c3O)C[C@@H]([C@@H]1O)N2C)OCO4 [Compound 35],MTMD,[1],0.25 mg/kg
COc1c(C)cc2c(c1O)[C@@H]1[C@@H]3[C@@H]4SC[C@]5(N[C@H](CO)Cc6c5oc5ccccc65)C(=O)OC[C@@H](c5c6c(c(C)c(OC(C)=O)c54)OCO6)N3[C@@H](O)[C@H](C2)N1C [Compound 39-S],Median Tumor Volume,[2]; Day 2,314.4 mm^3
same,Median Tumor Volume,[2]; Day 5,584.1 mm^3
same,Median Tumor Volume,[2]; Day 7,831.2 mm^3
same,Median Tumor Volume,[2]; Day 9,841.0 mm^3
same,Median Tumor Volume,[2]; Day 12,1008.0 mm^3
same,Median Tumor Volume,[2]; Day 14,1309.8 mm^3
same,Median Tumor Volume,[2]; Day 16,1470.0 mm^3
same,Median Tumor Volume,[2]; Day 19,2025.0 mm^3
same,Total diameter (tumor + leg),[3]; Day 2,7.9 mm
same,Total diameter (tumor + leg),[3]; Day 5,6.4 mm
same,Total diameter (tumor + leg),[3]; Day 7,6.8 mm
same,Total diameter (tumor + leg),[3]; Day 9,6.9 mm
same,Total diameter (tumor + leg),[3]; Day 12,6.6 mm
same,Total diameter (tumor + leg),[3]; Day 14,6.4 mm
same,Total diameter (tumor + leg),[3]; Day 16,6.8 mm
same,Total diameter (tumor + leg),[3]; Day 19,7.0 mm
same,Total diameter (tumor + leg),[3]; Day 21,7.0 mm
same,Total diameter (tumor + leg),[3]; Day 23,8.5 mm
same,Total diameter (tumor + leg),[3]; Day 27,10.8 mm
same,Total diameter (tumor + leg),[3]; Day 33,14.3 mm
same,Total diameter (tumor + leg),[3]; Day 35,15.3 mm
same,Total diameter (tumor + leg),[3]; Day 37,18.0 mm
same,Median Tumor Volume,[4]; Day 2,356.3 mm^3
same,Median Tumor Volume,[4]; Day 5,469.7 mm^3
same,Median Tumor Volume,[4]; Day 7,467.8 mm^3
same,Median Tumor Volume,[4]; Day 9,575.2 mm^3
same,Median Tumor Volume,[4]; Day 12,611.1 mm^3
same,Median Tumor Volume,[4]; Day 14,637.3 mm^3
same,Median Tumor Volume,[4]; Day 16,690.4 mm^3
same,Median Tumor Volume,[4]; Day 19,701.8 mm^3
same,Median Tumor Volume,[4]; Day 21,697.4 mm^3
same,Median Tumor Volume,[4]; Day 23,715.5 mm^3
same,Median Tumor Volume,[4]; Day 26,898.1 mm^3
same,Median Tumor Volume,[4]; Day 28,1163.4 mm^3
same,Median Tumor Volume,[4]; Day 30,1409.3 mm^3
same,Median Tumor Volume,[4]; Day 33,1450.5 mm^3
same,Median Tumor Volume,[4]; Day 35,1708.5 mm^3
same,Median Tumor Volume,[4]; Day 37,1804.4 mm^3
same,Median Tumor Volume,[4]; Day 40,2075.2 mm^3
same,Median Tumor Volume,[5]; Day 2,206.5 mm^3
same,Median Tumor Volume,[5]; Day 5,163.4 mm^3
same,Median Tumor Volume,[5]; Day 7,298.6 mm^3
same,Median Tumor Volume,[5]; Day 9,317.4 mm^3
same,Median Tumor Volume,[5]; Day 12,378.2 mm^3
same,Median Tumor Volume,[5]; Day 14,668.5 mm^3
same,Median Tumor Volume,[5]; Day 16,853.5 mm^3
same,Median Tumor Volume,[5]; Day 19,1415.5 mm^3
same,Median Tumor Volume,[5]; Day 21,1519.2 mm^3
same,Median Tumor Volume,[5]; Day 23,1666.0 mm^3
same,Median Tumor Volume,[5]; Day 30,2025.0 mm^3
same,Median Tumor Volume,[6]; Day 2,209.3 mm^3
same,Median Tumor Volume,[6]; Day 5,290.9 mm^3
same,Median Tumor Volume,[6]; Day 7,301.8 mm^3
same,Median Tumor Volume,[6]; Day 9,300.8 mm^3
same,Median Tumor Volume,[6]; Day 12,278.7 mm^3
same,Median Tumor Volume,[6]; Day 14,249.7 mm^3
same,Median Tumor Volume,[6]; Day 16,243.6 mm^3
same,Median Tumor Volume,[6]; Day 19,248.3 mm^3
same,Median Tumor Volume,[6]; Day 21,250.0 mm^3
same,Median Tumor Volume,[6]; Day 23,260.3 mm^3
same,Median Tumor Volume,[6]; Day 26,304.9 mm^3
same,Median Tumor Volume,[6]; Day 28,337.1 mm^3
same,Median Tumor Volume,[6]; Day 30,451.3 mm^3
same,Median Tumor Volume,[6]; Day 33,584.1 mm^3
same,Median Tumor Volume,[6]; Day 35,683.4 mm^3
same,Median Tumor Volume,[6]; Day 37,784.7 mm^3
same,Median Tumor Volume,[6]; Day 40,937.4 mm^3
same,Median Tumor Volume,[6]; Day 42,1060.5 mm^3
same,Median Tumor Volume,[6]; Day 44,1170.5 mm^3
same,Median Tumor Volume,[6]; Day 47,1112.9 mm^3
same,Median Tumor Volume,[6]; Day 49,1138.6 mm^3
same,Median Tumor Volume,[6]; Day 51,1283.2 mm^3
same,Median Tumor Volume,[6]; Day 54,1415.1 mm^3
same,Median Tumor Volume,[6]; Day 56,1518.7 mm^3
same,Median Tumor Volume,[6]; Day 58,1728.5 mm^3
same,Median Tumor Volume,[6]; Day 61,2017.9 mm^3

# — patent publication US12384800B2, “Antitumoral compounds” (priority 2017, dated 2025)
